Laboratory results: PubChem BioAssay AID1963973 (Molecular Pharmacology Branch, DTP, NCI, 2024)

Tested on: 883617-216-R-J1-PDC tumor spheroids, viability
Assay: Anticancer human tumor 883617-216-R-J1-PDC patient-derived bladder carcinoma cell line growth inhibition [PI3K]
Details: spheroids with HUVEC and MSC; for IC50: curve of first compound; for viability, T/C: stronger effect = lower value; active = viability on the fitted dose curve at most 10% of control; inactive = the rest
Method in brief: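 We assembled tumor spheroids that included a stromal compartment of HUVEC and MSCs, then exposed them to targeted agents alone and together with PI3K pathway inhibitors. Concentration series descended by half-log from clinically achievable Cmax levels. Viability served as the endpoint.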

[1] = second compound 0.00316 µM, first compound 0.0316 µM
[2] = second compound 0.00316 µM, first compound 0.1 µM
[3] = second compound 0.00316 µM, first compound 0.316 µM
[4] = second compound 0.00316 µM, first compound 1 µM
[5] = second compound 0.00316 µM, first compound 3.16 µM
[6] = second compound 0.00316 µM, first compound 10 µM
[7] = second compound 0.01 µM, first compound 0.0316 µM
[8] = second compound 0.01 µM, first compound 0.1 µM
[9] = second compound 0.01 µM, first compound 0.316 µM
[10] = second compound 0.01 µM, first compound 1 µM
[11] = second compound 0.01 µM, first compound 3.16 µM
[12] = second compound 0.01 µM, first compound 10 µM
[13] = second compound 0.0316 µM, first compound 0.0316 µM
[14] = second compound 0.0316 µM, first compound 0.1 µM
[15] = second compound 0.0316 µM, first compound 0.316 µM
[16] = second compound 0.0316 µM, first compound 1 µM
[17] = second compound 0.0316 µM, first compound 3.16 µM
[18] = second compound 0.0316 µM, first compound 10 µM
[19] = second compound 0.1 µM, first compound 0.0316 µM
[20] = second compound 0.1 µM, first compound 0.1 µM
[21] = second compound 0.1 µM, first compound 0.316 µM
[22] = second compound 0.1 µM, first compound 1 µM
[23] = second compound 0.1 µM, first compound 3.16 µM
[24] = second compound 0.1 µM, first compound 10 µM
[25] = second compound 0.316 µM, first compound 0.0316 µM
[26] = second compound 0.316 µM, first compound 0.1 µM
[27] = second compound 0.316 µM, first compound 0.316 µM
[28] = second compound 0.316 µM, first compound 1 µM
[29] = second compound 0.316 µM, first compound 3.16 µM
[30] = second compound 0.316 µM, first compound 10 µM
[31] = second compound 1 µM, first compound 0.0316 µM
[32] = second compound 1 µM, first compound 0.1 µM
[33] = second compound 1 µM, first compound 0.316 µM
[34] = second compound 1 µM, first compound 1 µM
[35] = second compound 1 µM, first compound 3.16 µM
[36] = second compound 1 µM, first compound 10 µM
[37] = second compound 0.00316 µM, first compound 0.00316 µM
[38] = second compound 0.00316 µM, first compound 0.01 µM
[39] = second compound 0.01 µM, first compound 0.00316 µM
[40] = second compound 0.01 µM, first compound 0.01 µM
[41] = second compound 0.0316 µM, first compound 0.00316 µM
[42] = second compound 0.0316 µM, first compound 0.01 µM
[43] = second compound 0.1 µM, first compound 0.00316 µM
[44] = second compound 0.1 µM, first compound 0.01 µM
[45] = second compound 0.316 µM, first compound 0.00316 µM
[46] = second compound 0.316 µM, first compound 0.01 µM
[47] = second compound 1 µM, first compound 0.00316 µM
[48] = second compound 1 µM, first compound 0.01 µM
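Also: spheroids exposed to agents for 7 days before the viability read.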

CC(C)NCC(C(=O)N1CCN(c2ncnc3c2C(C)CC3O)CC1)c1ccc(Cl)cc1 (stereo not drawn) + CC(Nc1ccc2c(c1)OCCn1cc(N3C(=O)OCC3C(F)F)nc1-2)C(N)=O
254 nM: IC50 (second compound 0.0316 µM)
76.6 nM: IC50 (second compound 0.1 µM)
520 nM: IC50 (second compound 0.01 µM)
453 nM: IC50 (second compound 0.00316 µM)
inactive: viability, T/C [1] 83.7% | viability, T/C [2] 81.7% | viability, T/C [3] 57.4% | viability, T/C [4] 30.3% | viability, T/C [5] 15.1% | viability, T/C [7] 74.1% | viability, T/C [8] 79.9% | viability, T/C [9] 64% | viability, T/C [10] 30.3% | viability, T/C [11] 14.8% | viability, T/C [13] 73.8% | viability, T/C [14] 62% | viability, T/C [15] 48.1% | viability, T/C [16] 27.1% | viability, T/C [17] 12.8% | viability, T/C [19] 87.1% | viability, T/C [20] 32.9% | viability, T/C [21] 27.9% | viability, T/C [22] 19.2% | viability, T/C [23] 10.1% | viability, T/C [24] 5.7% | viability, T/C [25] 27.5% | viability, T/C [26] 26.4% | viability, T/C [27] 20.7% | viability, T/C [28] 13.2% | viability, T/C [31] 14.9% | viability, T/C [32] 21.9% | viability, T/C [33] 15.7% | viability, T/C [34] 10.1%
< 31.6 nM: IC50 (second compound 0.316 µM) | IC50 (second compound 1 µM)
active: viability, T/C [6] 6.47% | viability, T/C [12] 5.88% | viability, T/C [18] 6.19% | viability, T/C [29] 7.79% | viability, T/C [30] 4.52% | viability, T/C [35] 10.1% | viability, T/C [36] 3.3%

CCN1CCN(Cc2ccc(Nc3ncc(F)c(-c4cc(F)c5nc(C)n(C(C)C)c5c4)n3)nc2)CC1 + CC(Nc1ccc2c(c1)OCCn1cc(N3C(=O)OCC3C(F)F)nc1-2)C(N)=O
203 nM: IC50 (second compound 0.00316 µM)
< 3.16 nM: IC50 (second compound 0.1 µM) | IC50 (second compound 0.316 µM) | IC50 (second compound 1 µM)
166 nM: IC50 (second compound 0.01 µM)
inactive: viability, T/C [37] 86% | viability, T/C [38] 80.7% | viability, T/C [1] 59.5% | viability, T/C [2] 58.4% | viability, T/C [3] 46.2% | viability, T/C [4] 43.8% | viability, T/C [39] 73.8% | viability, T/C [40] 63.2% | viability, T/C [7] 59.4% | viability, T/C [8] 51.1% | viability, T/C [9] 47.1% | viability, T/C [10] 45% | viability, T/C [41] 57% | viability, T/C [42] 55.4% | viability, T/C [13] 52.6% | viability, T/C [14] 52.6% | viability, T/C [15] 37.5% | viability, T/C [16] 36.3% | viability, T/C [43] 49.3% | viability, T/C [44] 34.4% | viability, T/C [19] 30.7% | viability, T/C [20] 31% | viability, T/C [21] 30.9% | viability, T/C [22] 24.4% | viability, T/C [45] 26.3% | viability, T/C [46] 26.8% | viability, T/C [25] 18% | viability, T/C [26] 19.9% | viability, T/C [27] 15.4% | viability, T/C [28] 17% | viability, T/C [47] 13.8% | viability, T/C [48] 14% | viability, T/C [31] 11.2% | viability, T/C [32] 11.2% | viability, T/C [33] 11.5% | viability, T/C [34] 11.1%
122 nM: IC50 (second compound 0.0316 µM)

Cn1ncc(Cl)c1-c1cc(C(=O)NC(CN)Cc2cccc(F)c2)sc1Cl (stereo not drawn) + CC(Nc1ccc2c(c1)OCCn1cc(N3C(=O)OCC3C(F)F)nc1-2)C(N)=O
< 31.6 nM: IC50 (second compound 0.1 µM) | IC50 (second compound 0.316 µM) | IC50 (second compound 1 µM)
455 nM: IC50 (second compound 0.01 µM)
223 nM: IC50 (second compound 0.0316 µM)
inactive: viability, T/C [1] 82.8% | viability, T/C [2] 69.4% | viability, T/C [3] 51.2% | viability, T/C [4] 28.9% | viability, T/C [5] 10.6% | viability, T/C [6] 87.3% | viability, T/C [7] 88.9% | viability, T/C [8] 90.2% | viability, T/C [9] 52.5% | viability, T/C [10] 27.2% | viability, T/C [11] 10.3% | viability, T/C [12] 96.1% | viability, T/C [13] 67% | viability, T/C [14] 63.6% | viability, T/C [15] 43.2% | viability, T/C [16] 21.7% | viability, T/C [17] 8.53% | viability, T/C [18] 64.1% | viability, T/C [19] 43.8% | viability, T/C [20] 44% | viability, T/C [21] 30.7% | viability, T/C [22] 15.2% | viability, T/C [23] 7.17% | viability, T/C [24] 51.4% | viability, T/C [25] 23.5% | viability, T/C [26] 25.2% | viability, T/C [27] 18.6% | viability, T/C [28] 11% | viability, T/C [29] 5.52% | viability, T/C [30] 21.4% | viability, T/C [31] 13.5% | viability, T/C [32] 12.6% | viability, T/C [33] 11.8% | viability, T/C [34] 8.52% | viability, T/C [35] 5.53% | viability, T/C [36] 13.3%
285 nM: IC50 (second compound 0.00316 µM)

Cn1ncnc1[C@H]1c2n[nH]c(=O)c3cc(F)cc(c23)N[C@@H]1c1ccc(F)cc1 + CC(Nc1ccc2c(c1)OCCn1cc(N3C(=O)OCC3C(F)F)nc1-2)C(N)=O
< 0.316 nM: IC50 (second compound 0.1 µM) | IC50 (second compound 0.316 µM) | IC50 (second compound 1 µM)
5.36 nM: IC50 (second compound 0.0316 µM)
> 100 nM: IC50 (second compound 0.00316 µM) | IC50 (second compound 0.01 µM)
inactive: viability, T/C (second compound 0.00316 µM, first compound 0.000316 µM) 84.3% | viability, T/C (second compound 0.00316 µM, first compound 0.001 µM) 83.1% | viability, T/C [37] 89% | viability, T/C [38] 78.3% | viability, T/C [1] 63% | viability, T/C [2] 63.2% | viability, T/C (second compound 0.01 µM, first compound 0.000316 µM) 83% | viability, T/C (second compound 0.01 µM, first compound 0.001 µM) 94.6% | viability, T/C [39] 79.3% | viability, T/C [40] 69% | viability, T/C [7] 64.9% | viability, T/C [8] 59.5% | viability, T/C (second compound 0.0316 µM, first compound 0.000316 µM) 69.6% | viability, T/C (second compound 0.0316 µM, first compound 0.001 µM) 79.7% | viability, T/C [41] 54.2% | viability, T/C [42] 50% | viability, T/C [13] 44.2% | viability, T/C [14] 40.6% | viability, T/C (second compound 0.1 µM, first compound 0.000316 µM) 43.4% | viability, T/C (second compound 0.1 µM, first compound 0.001 µM) 45.1% | viability, T/C [43] 43.7% | viability, T/C [44] 38.2% | viability, T/C [19] 32.1% | viability, T/C [20] 31.9% | viability, T/C (second compound 0.316 µM, first compound 0.000316 µM) 25.7% | viability, T/C (second compound 0.316 µM, first compound 0.001 µM) 25.3% | viability, T/C [45] 25.8% | viability, T/C [46] 28.6% | viability, T/C [25] 22.8% | viability, T/C [26] 19.1% | viability, T/C (second compound 1 µM, first compound 0.000316 µM) 18.5% | viability, T/C (second compound 1 µM, first compound 0.001 µM) 15.8% | viability, T/C [47] 13% | viability, T/C [48] 14.6% | viability, T/C [31] 13.5% | viability, T/C [32] 10.8%
